Test results: patent US5596009A, “Fused benzeneoxyacetic acid derivatives” (Ono Pharmaceutical Co., Ltd., priority 1991, dated 1997)

What was measured:
PGl2 receptor = target: T1, PGl2 receptor (Homo sapiens, UniProt P43119); experiment: Inhibitory activity on binding of ^3 H-iloprost to PGl2 receptor on human blood platelet membrane fraction; settings: human blood platelet membrane fraction (0.3 mg protein), 10 nM [^3 H]-iloprost, pH 7.4, 24° C., 30 min; read-out: IC50 (inhibition of [^3 H]-iloprost binding to PGl2 receptor)
T1 construct: human blood platelet membrane fraction (0.3 mg protein) was added; from tissue; host or cells: human blood platelets (membrane fraction)
T1 sequence (P43119 whole entry): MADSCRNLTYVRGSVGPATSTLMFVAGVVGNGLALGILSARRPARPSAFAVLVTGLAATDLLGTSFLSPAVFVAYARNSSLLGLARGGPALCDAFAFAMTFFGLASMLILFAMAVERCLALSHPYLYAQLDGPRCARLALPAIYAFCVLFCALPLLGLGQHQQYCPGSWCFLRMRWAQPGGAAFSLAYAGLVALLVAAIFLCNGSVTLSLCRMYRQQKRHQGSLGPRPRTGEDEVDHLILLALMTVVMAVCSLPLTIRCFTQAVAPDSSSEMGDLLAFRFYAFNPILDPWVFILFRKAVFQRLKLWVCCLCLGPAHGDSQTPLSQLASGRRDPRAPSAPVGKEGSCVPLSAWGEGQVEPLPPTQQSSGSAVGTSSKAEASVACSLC
Protocol: i) Inhibitory activity on binding of ^3 H-iloprost to PGl2 receptor on human blood platelet membrane fraction
50 mM Tris-HCl buffer (pH 7.4) containing 15 mM MgCl2, 5 mM EDTA and 10 nM [^3 H]-iloprost were used as reaction medium. To 0.2 ml of the reaction medium, human blood platelet membrane fraction (0.3 mg protein) was added with or without a test compound. The mixture was incubated at 24° C. for 30 min. After incubation, 4 ml of ice-cold 10 mM Tris-HCl buffer (pH 7.4) was added to the reaction mixture, and filtered through Whatman GF/B glass fiber filter, and washed 4 times with 4 ml of ice-cold 10 mM Tris-HCl buffer (pH 7.4) to separate bound and free [^3 H]-iloprost. After washing, the filter was dried and radioactivity was counted. Non-specific binding was obtained by performing parallel binding experiments in the presence of 10 μM non-labelled iloprost. Specific binding was calculated by subtracting the non-specific binding from the total binding.
The inhibitory effect of test compound was calculated from the following equation.
The percentage of inhibition (%)=100-(B1 /B0 ×100)
B1 : specific [^3 H]-iloprost binding in presence of test compound
B0 : specific [^3 H]-iloprost binding in absence of test compound

[1] = system: human blood platelet aggregation; experiment: Inhibitory effect on human blood platelet aggregation; assay type: cell-based; settings: human platelet-rich plasma (5×10^5 platelets/mm^3), compound 1 min prior to ADP (4 μm); read-out: IC50 (inhibition of platelet aggregation)
Protocol: ii) Inhibitory effect on human blood platelet aggregation
Platelet-rich plasma (PRP) was prepared from human blood (5×10^5 platelets/mm^3), and a test compound was added to PRP 1 min prior to the addition of ADP (4 μm). The aggregation was monitored using a platelet aggregometer (NBS HEMA TRACER 601, Niko Bioscience, Japan).

`O=C(O)COc1cccc2c1CCCC2CCC(=O)N(Cc1ccccc1)c1ccccc1` (centres unmarked) [3 (l), [1-(2-(N-Benzyl-N-phenylamino)carbonylethyl)-1,2,3,4-tetrahydronaphthalen-5-yl]oxyacetic acid] was tested, and the IC50 (PGl2 receptor) was 2900 nM.

`O=C(O)COc1cccc2c1CCCC2CCCC(=O)N(c1ccccc1)c1ccccc1` (centres unmarked) [3 (dd), [1-(3-(N,N-Diphenylamino)carbonylpropyl)-1,2,3,4-tetrahydronaphthalen-5-yl]oxyacetic acid] showed an IC50 [1] of 5100 nM and an IC50 (PGl2 receptor) of 1700 nM.

Compound `CN(CC1CCc2c(cccc2OCC(=O)O)C1)C(=O)CN(Cc1ccccc1)c1ccccc1` (centres unmarked) [8 (b), [2-((N-Methyl-N-((N'-benzyl-N'-phenylamino)methylcarbonyl)amino)methyl)-1,2,3,4-tetrahydronaphthalen-5-yl]oxyacetic acid] has an IC50 [1] of 8000 nM and an IC50 (PGl2 receptor) of 3100 nM.

In the case of `O=C(O)COc1cccc2c1CCCC2CCCC(=O)N(Cc1ccccc1)Cc1ccccc1` (centres unmarked) [3 (bb), [1-(3-(N,N-Dibenzylamino)carbonylpropyl)-1,2,3,4-tetrahydronaphthalen-5-yl]oxyacetic acid], the IC50 (PGl2 receptor) is reported as 4100 nM.

Work on `CCCN(CC1CCc2c(cccc2OCC(=O)O)C1)C(=O)CN(Cc1ccccc1)c1ccccc1` (centres unmarked) [8 (d), [2-((N-Propyl-N-((N'-benzyl-N'-phenylamino)methylcarbonyl)amino)methyl)-1,2,3,4-tetrahydronaphthalen-5-yl]oxyacetic acid] yielded an IC50 [1] of 5600 nM and an IC50 (PGl2 receptor) of 1800 nM.

With `CCCN(CCC1CCc2c(cccc2OCC(=O)O)C1)C(=O)CN(c1ccccc1)c1ccccc1` (centres unmarked) [10 (a), [2-(2-(N-Propyl-N-(diphenylaminomethylcarbonyl)amino)ethyl)-1,2,3,4-tetrahydronaphthalen-5-yl]oxyacetic acid] the IC50 (PGl2 receptor) was 480 nM.

`O=C(O)COc1cccc2c1CCCC2CC(=O)NN(c1ccccc1)c1ccccc1` (centres unmarked) [3 (j), [1-((N,N-Diphenylamino)aminocarbonyimethyl)-1,2,3,4-tetrahydronaphthalen-5-yl]oxyacetic acid] showed an IC50 (PGl2 receptor) of 7600 nM.

In the case of `O=C(O)COc1cccc2c1CCC(CC(=O)NC(c1ccccc1)c1ccccc1)C2` (centres unmarked) [3 (v), [2-(Diphenylmethylaminocarbonylmethyl)-1,2,3,4-tetrahydronaphthalen-5-yl]oxyacetic acid], the IC50 [1] is reported as 1000 nM and the IC50 (PGl2 receptor) is reported as 120 nM.

`O=C(O)COc1cccc2c1CCC(CCC(=O)NN(c1ccccc1)c1ccccc1)C2` (centres unmarked) [3 (z), [2-(2-(N,N-Diphenylamino)aminocarbonylethyl)-1,2,3,4-tetrahydronaphthalen-5-yl]oxyacetic acid] was tested, and the IC50 [1] was 2300 nM and the IC50 (PGl2 receptor) was 100 nM.

`O=C(O)COc1cccc2c1CCCC2CCC(=O)NC(c1ccccc1)c1ccccc1` (centres unmarked) [3 (o), [1-(2-Diphenylmethylaminocarbonylethyl)-1,2,3,4-tetrahydronaphthalen-5-yl]oxyacetic acid] was tested, and the IC50 [1] was 400 nM and the IC50 (PGl2 receptor) was 210 nM.

With `O=C(O)COc1cccc2c1CCC(CCC(=O)NC(c1ccccc1)c1ccccc1)C2` (centres unmarked) [3 (y), [2-(2-(Diphenylmethylamino)carbonylethyl)-1,2,3,4-tetrahydronaphthalen-5-yl]oxyacetic acid] the IC50 [1] was 7000 nM and the IC50 (PGl2 receptor) was 1800 nM.

Work on `CCCN(CC1CCc2c(cccc2OCC(=O)O)C1)C(=O)CN(c1ccccc1)c1ccccc1` (centres unmarked) [8 (c), [2-((N-Propyl-N-(diphenylaminomethylcarbonyl)amino)methyl)-1,2,3,4-tetrahydronaphthalen-5-yl]oxyacetic acid] yielded an IC50 [1] of 2500 nM and an IC50 (PGl2 receptor) of 180 nM.

In the case of `O=C(O)COc1cccc2c1CCC(CCC(=O)NN=C(c1ccccc1)c1ccccc1)C2` (centres unmarked) [3 (aa), [2-(2-(Diphenylmethylideneamino)aminocarbonylethyl)-1,2,3,4-tetrahydronaphthalen-5-yl]oxyacetic acid], the IC50 (PGl2 receptor) is reported as 6000 nM.

In the case of `CCCN(CCC1CCc2c(cccc2OCC(=O)O)C1)C(=O)CN(Cc1ccccc1)c1ccccc1` (centres unmarked) [10 (b), [2-(2-(N-Propyl-N-((N'-benzyl-N'-phenylamino)methylcarbonyl)amino)ethyl)-1,2,3,4-tetrahydronaphthalen-5-yl]oxyacetic acid], the IC50 (PGl2 receptor) is reported as 8400 nM.

`O=C(O)COc1cccc2c1CCCC2CCC(=O)NN(c1ccccc1)c1ccccc1` (centres unmarked) [3 (p), [1-(2-(N,N-Diphenylamino)aminocarbonylethyl)-1,2,3,4-tetrahydronaphthalen-5-yl]oxyacetic acid] was tested, and the IC50 [1] was 110 nM and the IC50 (PGl2 receptor) was 9.4 nM.

`CN(CCC1CCc2c(cccc2OCC(=O)O)C1)C(=O)CN(c1ccccc1)c1ccccc1` (centres unmarked) [10 (c), [2-(2-(N-Methyl-N-(diphenylaminomethylcarbonyl)amino)ethyl)-1,2,3,4-tetrahydronaphthalen-5-yl]oxyacetic acid] was tested, and the IC50 (PGl2 receptor) was 1300 nM.

`O=C(O)COc1cccc2c1CCC(CC(=O)NN(c1ccccc1)c1ccccc1)C2` (centres unmarked) [3 (w), [2-((N,N-Diphenylamino)aminocarbonylmethyl)-1,2,3,4-tetrahydronaphthalen-5-yl]oxyacetic acid] gave an IC50 [1] of 620 nM and an IC50 (PGl2 receptor) of 20 nM.

`O=C(O)COc1cccc2c1CCC(CCC(=O)N(Cc1ccccc1)Cc1ccccc1)C2` (centres unmarked) [3 (x), [2-(2-(N,N-Dibenzylamino)carbonylethyl)-1,2,3,4-tetrahydronaphthalen-5-yl]oxyacetic acid] was tested, and the IC50 (PGl2 receptor) was 2700 nM.

For `O=C(O)COc1cccc2c1CCCC2CCC(=O)NC(Cc1ccccc1)c1ccccc1` (centres unmarked) [3 (q), [1-(2-(1,2-Diphenylethyl)aminocarbonylethyl)-1,2,3,4-tetrahydronaphthalen-5-yl]oxyacetic acid], the IC50 (PGl2 receptor) was 6800 nM.

Compound `O=C(O)COc1cccc2c1CCCC2CCC(=O)N(Cc1ccccc1)Cc1ccccc1` (centres unmarked) [3 (m), [1-(2-Dibenzylaminocarbonylethyl)-1,2,3,4-tetrahydronaphthalen-5-yl]oxyacetic acid] has an IC50 (PGl2 receptor) of 320 nM.

`O=C(O)COc1cccc2c1CCCC2CCCC(=O)NC(c1ccccc1)c1ccccc1` (centres unmarked) [3 (cc), [1-(3-Diphenylmethylaminocarbonylpropyl)-1,2,3,4-tetrahydronaphthalen-5-yl]oxyacetic acid] gave an IC50 (PGl2 receptor) of 2700 nM.

With `CN(CC1CCc2c(cccc2OCC(=O)O)C1)C(=O)NC(c1ccccc1)c1ccccc1` (centres unmarked) [Example 7, [2-(N-Methyl-N-(diphenylmethylaminocarbonyl)aminomethyl)-1,2,3,4-tetrahydronaphthalen-5-yl]oxyacetic acid] the IC50 (PGl2 receptor) was 6600 nM.

For `COC(=O)COc1cccc2c1CCC(CN(C)C(=O)CN(c1ccccc1)c1ccccc1)C2` (centres unmarked) [4 (a), Methyl [2-((N-methyl-N-(diphenylaminomethylcarbonyl)amino)methyl)-1,2,3,4-tetrahydronaphthalen-5-yl]oxyacetate], the IC50 (PGl2 receptor) was 2300 nM.

Work on `O=C(O)COc1cccc2c1CCCC2CCC(=O)N(c1ccccc1)c1ccccc1` (centres unmarked) [Example 3, [1-(2-Diphenylaminocarbonylethyl)-1,2,3,4-tetrahydronaphthalen-5-yl]oxyacetic acid] yielded an IC50 [1] of 8300 nM and an IC50 (PGl2 receptor) of 680 nM.
